Key:
normal rats = assay: Urine protein excretion in normal rats; type: in vivo, Sprague Dawley rats
Source text: Data were expressed as mean±SEM. […] The accepted level of significance was p<0.05.

⅚ nephrectomized rats = assay: Urine protein excretion in five-sixths nephrectomized (ablation proteinuric) rats; type: in vivo, Sprague Dawley rats; conditions: for 24-hour urinary excretion of protein, Weeks 9-16: 762 nmoles/kg/day orally for 8 weeks (weeks 9-16 post nephrectomy); for 24-hour urinary excretion of protein, Weeks 9-16 / 24-hour urinary excretion of protein, Weeks 1-8: mean ± SEM; for 24-hour urinary excretion of protein, Weeks 1-8: treatment group in weeks 1-8 post nephrectomy, before treatment started (baseline)
Experimental: nephrectomy was carried out as described by Morrison (11). Briefly, each animal was anaesthetized with 7% w/v chloral hydrate (0.4 g/kg, i.p.). An incision was made in the ventral abdominal wall to access the kidneys. Right nephrectomy was performed and the cranial and caudal third of the left kidney were cut off. Tissue adhesive (Histoccryl, B. Braun) was used to seal the cut ends of the left kidney and prevent bleeding. In this way 5⁄6 of the renal parenchyma was removed. This model results in focal and segmental glomerulosclerosis, resembling renal lesions in humans like oligomeganephronia, membranous nephropathy, minimal change nephritis, proliferative glomerulonephritis, analgesic nephropathy, diabetes mellitus, unilateral nephrectomy, cortical necrosis, and unilateral renal agenesis (9). Following the operation, each animal was placed in a metabolic cage for 24 hours once a week for a duration of 8 weeks. The 24-hour urine output and the concentration of protein in the urine were measured. After the 8th week, the animals were randomly divided into two groups (8 animals per group). Animals in one of the group (the treatment group) were orally administered 762 nmoles/kg/day of des-Asp-angiotensin I dissolved in 0.5 ml of saline via a 1-ml syringe with a blunted needle for a period of 8 weeks. The dose of 762 nmoles/kg/day was calculated based on the maximum effective oral anti-cardiac hypertrophic dose (250 nmole per rat of average weight of 328 g) in the original parent patent. Animals in the other group (the control group) were similarly administered with 0.5 ml of saline. Weekly measurement of 24-hour urine output and the concentration of protein in the urine in these animals were carried out for another 8 weeks. The protocol was designed based on our preliminary observation that urinary excretion of protein in the 5⁄6 nephrectomized rats commenced to increase above the normal value in 7th to 8th week post nephrectomy. A repeat of the experiment with 12 nephrectomized rats per group was carried out. Data were expressed as mean±SEM. […] The accepted level of significance was p<0.05.

Which results are given for “des-Aspartate angiotensin I [des-Asp-angiotensin I]”?
24-hour urinary excretion of protein, Weeks 1-8 (normal rats; Table 4, normal rats, treatment group (762 nmoles/kg/day), 12 rats, mean ± SEM, saline control 18.7 ± 1.8): 16.1 ± 1.7 mg; 24-hour urinary excretion of protein, Weeks 9-16 (normal rats; Table 4, normal rats, treatment group (762 nmoles/kg/day), 12 rats, mean ± SEM, saline control 19.9 ± 2.2): 17.8 ± 1.1 mg; Effect on urinary excretion of protein in normal rats (normal rats; normal rats, oral dose of 762 nmoles/kg/day): no effect; 24-hour urinary excretion of protein, Weeks 9-16 (⅚ nephrectomized rats; Table 2, first experiment, 8 rats, saline control 37.2 ± 2.3, p = 0.024): *28.7 ± 2.5 mg; 24-hour urinary excretion of protein, Weeks 1-8 (⅚ nephrectomized rats; Table 2, first experiment, 8 rats): 16.4 ± 1.6 mg; 24-hour urinary excretion of protein, Weeks 9-16 (⅚ nephrectomized rats; Table 3, repeat experiment, 12 rats, saline control 51.7 ± 4.7, p = 0.048): *39.6 ± 3.3 mg; 24-hour urinary excretion of protein, Weeks 1-8 (⅚ nephrectomized rats; Table 3, repeat experiment, 12 rats): 19.9 ± 1.5 mg; Anti-proteinuric action (progressive development of proteinuria) (⅚ nephrectomized rats; ablation nephropathic rats, oral dose of 762 nmoles/kg/day): effective agent in attenuating the progressive development of proteinuria
